Laboratory results published in patent publication US8940510B2, “Spray dried microbes and methods of preparation and use” (University of Iowa Research Foundation, priority 2007, dated 2015).

Legend:
glycolate oxidase [1] = biological target: T1, glycolate oxidase (Spinacia oleracea, UniProt P05414); assay: Glycolate oxidase (DCIP) assay on Pichia pastoris whole-cell biocatalyst; format: biochemical, spinach; settings: racemic substrate, lactic acid is 100%; for Relative GO activity, Permeabilized: permeabilized cells; for Relative GO activity, Spray-dried: spray-dried cells
T1 construct: expressed in transfected cells; host or cells: Pichia pastoris, single recombinant (NRRL Y-21001) or double recombinant, spray-dried and/or BAC-permeabilised whole cells
T1 sequence (P05414 1-369): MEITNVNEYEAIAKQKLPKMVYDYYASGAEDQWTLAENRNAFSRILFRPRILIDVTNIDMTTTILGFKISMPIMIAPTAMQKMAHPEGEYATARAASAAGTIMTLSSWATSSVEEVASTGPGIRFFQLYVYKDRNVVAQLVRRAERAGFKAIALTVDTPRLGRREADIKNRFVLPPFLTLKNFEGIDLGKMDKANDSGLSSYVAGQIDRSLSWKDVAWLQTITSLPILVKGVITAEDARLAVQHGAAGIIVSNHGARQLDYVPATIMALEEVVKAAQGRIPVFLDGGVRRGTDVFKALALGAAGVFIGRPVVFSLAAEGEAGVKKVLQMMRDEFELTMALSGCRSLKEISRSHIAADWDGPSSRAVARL
Description: Glycolate Oxidase Assay • 1. Weigh approximately 40 mg spray-dried cells (record exact weight) into a 10 mL centrifuge tube. • 2. Add 8.0 mL of DCIP assay solution (0.12 mM 2,6-dichloroindophenol and 80 mM Tris, pH 8.3). A DCIP solution that is stored at 4° C. may be used for up to 2 weeks. • 3. Mix to suspend cells, then remove 50 μL of suspension (about 0.25 mg dry cells) and place in 3.0 mL quartz cuvette with flea stirrer. Add 2.0 mL of DCIP assay solution. Cap with septum and bubble with nitrogen for 3 minutes. • 4. […]
In initial work (in the absence of spray-drying), after fermentation, cells were recovered by solid/liquid separation, and benzalkonium chloride (BAC) detergent was used to permeabilize cells for the enzyme reaction. […] Thus, another experiment (see below) compared spray-dried cells to several other methods of cell preparation: a) not spray-dried and not BAC treated, b) not spray-dried and treated with BAC, and c) spray-dried and treated with BAC. The spray-dried cells were treated with BAC after spray-drying to determine if spray-drying completely permeabilized the cells.
Detergent Cell Permeabilization • 1. Prepare mixture of 10 weight % cells/volume 50 mM phosphate buffer (pH 7.0) at room temperature. Add 0.1% (w/v) benzalkonium chloride. • 2. Stir or mix slowly for 60 minutes at room temperature, 25° C. • 3. Centrifuge (9950×g for 10 minutes at 5° C.), decant, and re-suspend cells three times (10% w/v) in 50 mM phosphate buffer (pH 7.0) at 5° C., centrifuge, decant. • 4. Permeabilized cells may be used immediately or stored up to one year at −80° C. prior to use.

glycolate oxidase [2] = settings: 100 mM; enzyme extracted from tobacco leaves; cited from earlier work

CC(C)C(O)C(=O)O (racemic) [2-Hydroxy-3-methylbutyric acid]
Relative GO activity, Permeabilized (glycolate oxidase [1]): 1% | Relative GO activity, Spray-dried (glycolate oxidase [1]): 2%

CCC(O)C(=O)O (racemic) [2-Hydroxybutyric acid]
Relative GO activity, Permeabilized (glycolate oxidase [1]): 91% | Relative GO activity, Spray-dried (glycolate oxidase [1]): 129%

CCCCCCCCC(O)C(=O)O (racemic) [2-Hydroxydecanoic acid]
Relative GO activity, Permeabilized (glycolate oxidase [1]): 40% | Relative GO activity, Spray-dried (glycolate oxidase [1]): 49%

O=C(O)C(O)Cc1c[nH]c2ccccc12 (racemic) [3-Indolelactic acid]
Relative GO activity, Permeabilized (glycolate oxidase [1]): 18% | Relative GO activity, Spray-dried (glycolate oxidase [1]): 26%

O=C(O)C(O)Cc1ccccc1 (racemic) [3-Phenyllactic acid]
Relative GO activity, Permeabilized (glycolate oxidase [1]): 25% | Relative GO activity, Spray-dried (glycolate oxidase [1]): 37%

CC(O)C(=O)O (racemic) [Lactic acid]
Relative GO activity, Permeabilized (glycolate oxidase [1]): 100% | Relative GO activity, Spray-dried (glycolate oxidase [1]): 100%

O=C(O)C(O)c1ccccc1 (racemic) [Mandelic acid]
Relative GO activity, Permeabilized (glycolate oxidase [1]): 3% | Relative GO activity, Spray-dried (glycolate oxidase [1]): 3%

O=C(O)C(O)CCl (racemic) [β-Chlorolactic acid]
Relative GO activity, Permeabilized (glycolate oxidase [1]): 100% | Relative GO activity, Spray-dried (glycolate oxidase [1]): 121%

O=C(O)CO [Glycolic acid]
Relative GO activity, Permeabilized (glycolate oxidase [1]): 90% | Relative GO activity, Spray-dried (glycolate oxidase [1]): 94%

O=C(O)C(=O)O [Oxalic acid]
Effect on the catalytic action of glycolate oxidase (glycolate oxidase [2]): inhibit

O=C(O)C(O)Cc1ccc(O)cc1 (centres unmarked) [p-Hydroxyphenyllactic acid]
Relative GO activity, Permeabilized (glycolate oxidase [1]): 26% | Relative GO activity, Spray-dried (glycolate oxidase [1]): 38%

Trifluorolactic acid
Relative GO activity, Permeabilized (glycolate oxidase [1]): 11% | Relative GO activity, Spray-dried (glycolate oxidase [1]): 2%
